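Where inhibition never reached the appropriate level, the endpoint shown equals the highest concentration tested. Otherwise, values were interpolated linearly from a five-concentration, 48-hour dose response in 96-well plates. The concentration for 50% growth inhibition is given as GI50.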 Active and inactive are the calls of the source. Rule as the data show it: active = GI50 up to about 1.1 µM and inactive = higher.
Experiments:
Assay in all cases: DTP human tumour cell line panel, 48 h
786-0 = test system: 786-0
A498 = test system: A498
A549 = test system: A549
ACHN = test system: ACHN
CAKI-1 = test system: CAKI-1
CCRF-CEM = test system: CCRF-CEM
COLO 205 = test system: COLO 205
DLD-1 = test system: DLD-1
DMS-114 = test system: DMS-114
DMS-273 = test system: DMS-273
EKVX = test system: EKVX
HCC 2998 = test system: HCC 2998
HCT-116 = test system: HCT-116
HCT-15 = test system: HCT-15
HL-60 = test system: HL-60
HOP-18 = test system: HOP-18
HOP-62 = test system: HOP-62
HOP-92 = test system: HOP-92
HT-29 = test system: HT-29
IGROV-1 = test system: IGROV-1
K562 = test system: K562
KM-20L2 = test system: KM-20L2
KM12 = test system: KM12
LOX IMVI = test system: LOX IMVI
LXFL 529 = test system: LXFL 529
M14 = test system: M14
M19-MEL = test system: M19-MEL
MOLT-4 = test system: MOLT-4
Malme-3M = test system: Malme-3M
NCI-H226 = test system: NCI-H226
NCI-H23 = test system: NCI-H23
NCI-H460 = test system: NCI-H460
NCI-H522 = test system: NCI-H522
OVCAR-3 = test system: OVCAR-3
OVCAR-4 = test system: OVCAR-4
OVCAR-5 = test system: OVCAR-5
OVCAR-8 = test system: OVCAR-8
RPMI-8226 = test system: RPMI-8226
RXF 393 = test system: RXF 393
RXF 631 = test system: RXF 631
SF-268 = test system: SF-268
SF-295 = test system: SF-295
SF-539 = test system: SF-539
SK-MEL-28 = test system: SK-MEL-28
SK-MEL-2 = test system: SK-MEL-2
SK-MEL-5 = test system: SK-MEL-5
SK-OV-3 = test system: SK-OV-3
SN12C = test system: SN12C
SNB-19 = test system: SNB-19
SNB-75 = test system: SNB-75
SNB-78 = test system: SNB-78
SR = test system: SR
SW-620 = test system: SW-620
TK-10 = test system: TK-10
U-251 = test system: U-251
UACC-257 = test system: UACC-257
UACC-62 = test system: UACC-62
UO-31 = test system: UO-31
XF498 = test system: XF498

Measured: GI50

Cc1c2ccncc2c(C)c2c1[nH]c1ccc(Oc3ccccc3)cc12
inactive: 786-0 1780 nM | A498 5620 nM | A549 2250 nM | ACHN 3110 nM | CAKI-1 3610 nM | CCRF-CEM 2170 nM | COLO 205 2520 nM | DLD-1 2370 nM | DMS-114 2300 nM | DMS-273 1760 nM | EKVX 5820 nM | HCC 2998 1940 nM | HCT-116 2560 nM | HL-60 1850 nM | HOP-18 6040 nM | HOP-62 1960 nM | HOP-92 6050 nM | HT-29 1790 nM | IGROV-1 4130 nM | K562 1920 nM | KM-20L2 1870 nM | KM12 2600 nM | LOX IMVI 1930 nM | LXFL 529 2040 nM | M14 1820 nM | M19-MEL 2430 nM | MOLT-4 2150 nM | Malme-3M 1790 nM | NCI-H226 14300 nM | NCI-H23 11600 nM | NCI-H460 1950 nM | NCI-H522 2370 nM | OVCAR-3 2460 nM | OVCAR-4 2620 nM | OVCAR-5 1860 nM | OVCAR-8 2030 nM | RPMI-8226 1880 nM | RXF 393 1860 nM | RXF 631 2570 nM | SF-268 3390 nM | SF-295 4630 nM | SF-539 1880 nM | SK-MEL-28 3090 nM | SK-MEL-2 1660 nM | SK-MEL-5 2970 nM | SK-OV-3 6460 nM | SN12C 1810 nM | SNB-19 10600 nM | SNB-75 2860 nM | SNB-78 2280 nM | SR 2850 nM | SW-620 2670 nM | TK-10 8180 nM | U-251 1670 nM | UACC-257 2450 nM | UACC-62 1740 nM | UO-31 11000 nM | XF498 1450 nM
1440 nM: HCT-15

From ChEMBL document CHEMBL1201862, “PubChem BioAssay data set” (2004)
